# Experimental data published in PMC9864251 (Viruses, 2022).
# Assays:
# HuNoV (GII.4) RdRp [1] = target: T1, HuNoV (GII.4) RdRp (Norovirus GII.4 (Human norovirus, Norovirus norwalkense), UniProt P54634); experiment: Gel-based (gel-shift) RdRp primed elongation assay with PE44-NoV template; assay type: biochemical; conditions: compounds at fixed concentration of 100 μM
# HuNoV (GII.4) RdRp [2] = target: T1, HuNoV (GII.4) RdRp; experiment: Quantitative fluorescent RdRp activity assay (PicoGreen, poly(C) template); assay type: biochemical; conditions: compounds at 20 μM in triplicate, normalized to DMSO control
# RAW 264.7 cells = experiment: Cytotoxicity by the MTS method in uninfected RAW 264.7 cells; assay type: cell-based, mouse; conditions: 3 days, 0.6–100 μM range, mean ± SD, at least three independent experiments
# NoV = test system: NoV; design: method as in earlier work; conditions: cited from earlier work
# [3] = design: method as in earlier work; conditions: cited from earlier work
# HuNoV (GII.4) RdRp [4] = target: T1, HuNoV (GII.4) RdRp; conditions: activity data as previously reported ref 18,19, read-out: In Vitro RdRp Activity Assay IC50; cited from earlier work
# [5] = test system: MNV (virus strain MNV-1.CW1); experiment: MNV antiviral MTS-based cytopathic effect; assay type: cell-based, murine norovirus; conditions: Norwalk virus, RAW264.7, 72 h, read-out: MNV EC50
# MNV = test system: MNV; design: method as in earlier work; conditions: cited from earlier work
# HuNoVpol = test system: HuNoVpol; design: method as in earlier work; conditions: cited from earlier work
# MNVpol = test system: MNVpol; design: method as in earlier work; conditions: cited from earlier work
# T1 sequence (P54634 1190-1699): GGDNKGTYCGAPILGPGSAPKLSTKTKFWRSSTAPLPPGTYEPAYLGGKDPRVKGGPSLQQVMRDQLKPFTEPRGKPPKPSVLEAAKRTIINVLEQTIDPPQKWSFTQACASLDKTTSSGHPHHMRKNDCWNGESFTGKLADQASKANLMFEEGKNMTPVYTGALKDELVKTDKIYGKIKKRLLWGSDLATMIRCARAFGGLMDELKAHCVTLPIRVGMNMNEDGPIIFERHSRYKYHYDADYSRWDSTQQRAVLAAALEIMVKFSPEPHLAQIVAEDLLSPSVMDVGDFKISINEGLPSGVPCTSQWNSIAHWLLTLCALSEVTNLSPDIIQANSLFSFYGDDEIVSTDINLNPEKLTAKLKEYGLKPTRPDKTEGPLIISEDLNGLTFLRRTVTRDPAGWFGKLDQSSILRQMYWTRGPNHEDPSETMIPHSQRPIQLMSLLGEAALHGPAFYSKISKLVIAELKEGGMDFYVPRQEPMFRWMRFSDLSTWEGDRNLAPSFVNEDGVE
structure (smiles),measurement,setting,value
Cc1ccc(NC(=O)CSc2n[nH]c(-c3ccccc3O)n2)c(C)c1 [Compound 1],Inhibition of RdRp primed elongation activity (gel-shift),HuNoV (GII.4) RdRp [1],partial inhibition
Cc1ccc(NC(=O)CSc2n[nH]c(-c3ccccc3O)n2)cc1 [Compound 1b],Inhibition of RdRp primed elongation activity (gel-shift),HuNoV (GII.4) RdRp [1],partial inhibition
Cc1ccc(NC(=O)C[S+]([O-])c2n[nH]c(-c3ccccc3O)n2)c(C)c1 (stereo not drawn) [Compound 1e],Inhibition of HuNoV RdRp activity at 20 μM,HuNoV (GII.4) RdRp [2],loss of inhibitory activity
Cc1ccc(NC(=O)CS(=O)(=O)c2n[nH]c(-c3ccccc3O)n2)c(C)c1 [Compound 1f],Inhibition of RdRp primed elongation activity (gel-shift),HuNoV (GII.4) RdRp [1],partial inhibition
same,MNV CC50,RAW 264.7 cells,not associated with any cytotoxicity
"C[C@@]1(O)[C@H](O)[C@@H](CO)O[C@H]1n1ccc(N)nc1=O [Compound 2-CMC, 2′-C-methylcytidine]",EC50,NoV,8.2 µM
same,CC50,[3],> 100 µM
COc1ccc(N2C(=O)c3ccc(C(=O)O)cc3C2=O)cc1NC(=O)c1ccccc1 [Compound 2],Inhibition of RdRp primed elongation activity (gel-shift),HuNoV (GII.4) RdRp [1],partial inhibition
same,Inhibition of HuNoV RdRp activity at 20 μM,HuNoV (GII.4) RdRp [2],limited RdRp inhibition
O=C(Nc1cccc(N2C(=O)c3ccccc3C2=O)c1)c1ccccc1 [Compound 2e],Inhibition of HuNoV RdRp activity at 20 μM,HuNoV (GII.4) RdRp [2],loss of inhibitory activity
O=C(N/N=C/c1ccc(O)cc1O)c1ccccc1OCc1ccccc1 [Compound 3a],Inhibition of RdRp primed elongation activity (gel-shift),HuNoV (GII.4) RdRp [1],did not show significant inhibition
same,Inhibition of HuNoV RdRp activity at 20 μM,HuNoV (GII.4) RdRp [2],modest inhibition
O=C(N/N=C/c1ccc(OCc2ccccc2)cc1O)c1ccccc1O [Compound 3b],Inhibition of RdRp primed elongation activity (gel-shift),HuNoV (GII.4) RdRp [1],did not show significant inhibition
same,Inhibition of HuNoV RdRp activity at 20 μM,HuNoV (GII.4) RdRp [2],modest inhibition
Cc1cc(C(=O)O)ccc1-c1ccc(/C=C2\SC(=O)N(CC(=O)N3CCOCC3)C2=O)o1 [Compound 4],IC50,HuNoV (GII.4) RdRp [4],15 µM
same,MNV CC50,RAW 264.7 cells,did not display any cytotoxicity
Cc1cc(O)ccc1-c1ccc(/C=C2\SC(=O)N(CC(=O)N3CCOCC3)C2=O)o1 [Compound 4a],Inhibition of HuNoV RdRp activity at 20 μM,HuNoV (GII.4) RdRp [2],modest inhibition
O=C(CN1C(=O)S/C(=C\c2ccc(-c3ccc(O)cc3)o2)C1=O)N1CCOCC1 [Compound 4b],Inhibition of RdRp primed elongation activity (gel-shift),HuNoV (GII.4) RdRp [1],significant but partial inhibition
same,MNV CC50,RAW 264.7 cells,cytotoxic effect in the micromolar range
O=C(CN1C(=O)S/C(=C\c2ccc(-c3ccc(OP(=O)(O)O)cc3)o2)C1=O)N1CCOCC1 [Compound 4c],Inhibition of RdRp primed elongation activity (gel-shift),HuNoV (GII.4) RdRp [1],partial inhibition
O=C1NN(c2ccccc2)C(=O)/C1=C/c1ccc(-c2ccc(S(=O)(=O)Nc3ccccc3)cc2)o1 [Compound 5],Inhibition of RdRp primed elongation activity (gel-shift),HuNoV (GII.4) RdRp [1],completely abolish
same,IC50,HuNoV (GII.4) RdRp [4],5.6 µM
same,EC50,[5],> 100 µM
O=C1NN(c2ccc(O)cc2)C(=O)/C1=C/c1ccc(-c2ccc(S(=O)(=O)Nc3ccccc3)cc2)o1 [Compound 5a],Inhibition of RdRp primed elongation activity (gel-shift),HuNoV (GII.4) RdRp [1],nearly complete inhibition
same,MNV CC50,RAW 264.7 cells,CC50 value in the low micromolar range
"NC(=O)c1nc(F)c[nH]c1=O [Compound T-705, Favipiravir]",EC50,NoV,21 µM
same,CC50,[3],> 100 µM
Cc1nc(-c2ccccc2)sc1C(=O)Nc1sc2c(c1C#N)CCC2 [NIC02],EC50,MNV,4.8 µM
same,IC50,HuNoVpol,5 µM
"Cc1nc(/N=N/c2cc(S(=O)(=O)O)c3cc([N+](=O)[O-])cc(S(=O)(=O)O)c3c2)c(COP(=O)(O)O)c(C=O)c1O [PPNDS, reference compound]",Inhibition of RdRp primed elongation activity (gel-shift),HuNoV (GII.4) RdRp [1],complete inhibition
same,IC50,HuNoV (GII.4) RdRp [4],1.5 ± 0.25 µM
same,IC50,HuNoVpol,0.45 µM
NC(=O)c1ncn([C@@H]2O[C@H](CO)[C@@H](O)[C@H]2O)n1 [Ribavirin],EC50,NoV,43 µM
same,CC50,[3],> 100 µM
Cc1ccc(C(=O)Nc2ccc(S(=O)(=O)O)c3cc(S(=O)(=O)O)cc(S(=O)(=O)O)c23)cc1NC(=O)c1cccc(NC(=O)Nc2cccc(C(=O)Nc3cc(C(=O)Nc4ccc(S(=O)(=O)O)c5cc(S(=O)(=O)O)cc(S(=O)(=O)O)c45)ccc3C)c2)c1 [Suramin],IC50,MNVpol,0.07 µM
same,IC50,HuNoVpol,0.025 µM
